# Measurements published in PubChem BioAssay AID1259407 (Chemical Carcinogenesis Research Information System (CCRIS), 2018).
# Active and inactive are the calls of the source. The rule behind the calls is not given here.
# Tested on: CCRIS mutagenicity, Ames/micronucleus/aberration tests
# Assay: CCRIS mutagenicity studies
# [1] = Test System: AMES SALMONELLA TYPHIMURIUM, Strain/Indicator: TA98, Metabolic Activation: NONE, Method: STANDARD PLATE
# [2] = Test System: AMES SALMONELLA TYPHIMURIUM, Strain/Indicator: TA100, Metabolic Activation: NONE, Method: PREINCUBATION
smiles,measurement,setting,value
CC(=O)Nc1nc2c3cccnc3ccc2n1C,mutagenic call,"Test System: AMES SALMONELLA TYPHIMURIUM, Strain/Indicator: TA98(1,8-DNP6), Metabolic Activation: RAT, LIVER, S-9, Method: STANDARD PLATE",inactive; negative
same,mutagenic call,"Test System: AMES SALMONELLA TYPHIMURIUM, Strain/Indicator: TA98(NR), Metabolic Activation: RAT, LIVER, S-9, Method: STANDARD PLATE",active; positive
same,mutagenic call,"Test System: AMES SALMONELLA TYPHIMURIUM, Strain/Indicator: TA98, Metabolic Activation: RAT, LIVER, S-9, Method: STANDARD PLATE",active; positive
same,mutagenic call,"Test System: AMES SALMONELLA TYPHIMURIUM, Strain/Indicator: TA98, Method: STANDARD PLATE",active; positive
ClC(Cl)C(Cl)(Cl)Cl,mutagenic call,"End Point: IN VITRO CHROMOSOMAL ABERRATIONS, Test System: CHINESE HAMSTER LUNG FIBROBLAST CELLS (CHL/IU), Metabolic Activation: RAT, LIVER, S-9, PHENOBARBITAL AND 5,6-BENZOFLAVONE",inactive; negative
same,mutagenic call,"End Point: IN VITRO CHROMOSOMAL ABERRATIONS, Test System: CHINESE HAMSTER OVARY CELLS, Metabolic Activation: NONE",inactive; negative
same,mutagenic call,"End Point: IN VITRO CHROMOSOMAL ABERRATIONS, Test System: CHINESE HAMSTER OVARY CELLS, Metabolic Activation: RAT, LIVER, S-9, AROCLOR 1254",inactive; negative
same,mutagenic call,"Test System: MOUSE LYMPHOMA, Strain/Indicator: L5178Y (TK+/TK-), Metabolic Activation: NONE, Method: MICROWELL",active; positive
same,mutagenic call,"Test System: MOUSE LYMPHOMA, Strain/Indicator: L5178Y (TK+/TK-), Metabolic Activation: S-9, Method: MICROWELL",inactive; negative
O=[N+]([O-])c1cc2c3c(c1)CCc1cccc(c1-3)CC2,mutagenic call,"Test System: AMES SALMONELLA TYPHIMURIUM, Strain/Indicator: TA98(1,8-DNP6), Metabolic Activation: NONE, Method: STANDARD PLATE",active; positive
same,mutagenic call,"Test System: AMES SALMONELLA TYPHIMURIUM, Strain/Indicator: TA98(NR), Metabolic Activation: NONE, Method: STANDARD PLATE",active; positive
same,mutagenic call,[1],active; positive
CCCCCC[C@@H](O)[C@@H]1C2=C(C[C@H]([C@H](O)[C@@H]3CC=CC(=O)O3)CC3=C(C(=O)OC3=O)[C@@H]1O)C(=O)OC2=O,mutagenic call,[2],inactive; negative
same,mutagenic call,"Test System: AMES SALMONELLA TYPHIMURIUM, Strain/Indicator: TA100, Metabolic Activation: RAT, LIVER, S-9, PHENOBARBITAL, Method: PREINCUBATION",inactive; negative
O=P(OC(CCl)CCl)(OC(CCl)CCl)OC(CCl)CCl,mutagenic call,"Test System: AMES SALMONELLA TYPHIMURIUM, Strain/Indicator: TA97, Metabolic Activation: HAMSTER, LIVER, S-9, AROCLOR 1254 (10%), Method: PREINCUBATION",active; positive
same,mutagenic call,"Test System: AMES SALMONELLA TYPHIMURIUM, Strain/Indicator: TA97, Metabolic Activation: NONE, Method: PREINCUBATION",inactive; negative
same,mutagenic call,"Test System: AMES SALMONELLA TYPHIMURIUM, Strain/Indicator: TA97, Metabolic Activation: RAT, LIVER, S-9, AROCLOR 1254 (10%), Method: PREINCUBATION",inactive; negative
same,mutagenic call,"Test System: AMES SALMONELLA TYPHIMURIUM, Strain/Indicator: TA98, Metabolic Activation: HAMSTER, LIVER, S-9, AROCLOR 1254 (10%), Method: PREINCUBATION",inactive; negative
same,mutagenic call,"Test System: AMES SALMONELLA TYPHIMURIUM, Strain/Indicator: TA98, Metabolic Activation: NONE, Method: PREINCUBATION",inactive; negative
same,mutagenic call,"Test System: AMES SALMONELLA TYPHIMURIUM, Strain/Indicator: TA98, Metabolic Activation: RAT, LIVER, S-9, AROCLOR 1254 (10%), Method: PREINCUBATION",inactive; negative
same,mutagenic call,"Test System: AMES SALMONELLA TYPHIMURIUM, Strain/Indicator: TA100, Metabolic Activation: HAMSTER, LIVER, S-9, AROCLOR 1254 (10%), Method: PREINCUBATION",active; positive
same,mutagenic call,[2],inactive; negative
same,mutagenic call,"Test System: AMES SALMONELLA TYPHIMURIUM, Strain/Indicator: TA100, Metabolic Activation: RAT, LIVER, HEPATOCYTES, PHENOBARBITAL, Method: PREINCUBATION",inactive; negative
same,mutagenic call,"Test System: AMES SALMONELLA TYPHIMURIUM, Strain/Indicator: TA100, Metabolic Activation: RAT, LIVER, HEPATOCYTES, Method: PREINCUBATION",active; positive
same,mutagenic call,"Test System: AMES SALMONELLA TYPHIMURIUM, Strain/Indicator: TA100, Metabolic Activation: RAT, LIVER, MICROSOMES, PHENOBARBITAL, Method: STANDARD PLATE",active; positive
same,mutagenic call,"Test System: AMES SALMONELLA TYPHIMURIUM, Strain/Indicator: TA100, Metabolic Activation: RAT, LIVER, S-9, AROCLOR 1254 (10%), Method: PREINCUBATION",inactive; negative
same,mutagenic call,"Test System: AMES SALMONELLA TYPHIMURIUM, Strain/Indicator: TA100, Metabolic Activation: RAT, LIVER, S-9, PHENOBARBITAL, Method: STANDARD PLATE",active; positive
same,mutagenic call,"Test System: AMES SALMONELLA TYPHIMURIUM, Strain/Indicator: TA100, Metabolic Activation: RAT, LIVER, S-9, Method: STANDARD PLATE",inactive; negative
same,mutagenic call,"Test System: AMES SALMONELLA TYPHIMURIUM, Strain/Indicator: TA1535, Metabolic Activation: HAMSTER, LIVER, S-9, AROCLOR 1254 (10%), Method: PREINCUBATION",active; positive
same,mutagenic call,"Test System: AMES SALMONELLA TYPHIMURIUM, Strain/Indicator: TA1535, Metabolic Activation: NONE, Method: PREINCUBATION",inactive; negative
same,mutagenic call,"Test System: AMES SALMONELLA TYPHIMURIUM, Strain/Indicator: TA1535, Metabolic Activation: RAT, LIVER, S-9, AROCLOR 1254 (10%), Method: PREINCUBATION",active; positive
same,mutagenic call,"Test System: AMES SALMONELLA TYPHIMURIUM, Strain/Indicator: TA1537, Metabolic Activation: HAMSTER, LIVER, S-9, AROCLOR 1254 (10%), Method: PREINCUBATION",inactive; negative
same,mutagenic call,"Test System: AMES SALMONELLA TYPHIMURIUM, Strain/Indicator: TA1537, Metabolic Activation: NONE, Method: PREINCUBATION",inactive; negative
same,mutagenic call,"Test System: AMES SALMONELLA TYPHIMURIUM, Strain/Indicator: TA1537, Metabolic Activation: RAT, LIVER, S-9, AROCLOR 1254 (10%), Method: PREINCUBATION",inactive; negative
same,mutagenic call,"Test System: CHINESE HAMSTER V-79, Strain/Indicator: V-79/6-THIOGUANINE, Metabolic Activation: RAT, LIVER, MICROSOMES, PHENOBARBITAL",inactive; negative
same,mutagenic call,"Test System: UDS RODENT HEPATOCYTES, Strain/Indicator: THY INCORP (NON-S-PHASE), Metabolic Activation: RAT, LIVER, HEPATOCYTES, PHENOBARBITAL, Method: LIQUID SCINTILLATION COUNTING",inactive; negative
same,mutagenic call,"Test System: UDS RODENT HEPATOCYTES, Strain/Indicator: THY INCORP (NON-S-PHASE), Metabolic Activation: RAT, LIVER, HEPATOCYTES, Method: LIQUID SCINTILLATION COUNTING",inactive; negative
N#CCCl,mutagenic call,[1],inactive; negative
same,mutagenic call,"Test System: AMES SALMONELLA TYPHIMURIUM, Strain/Indicator: TA98, Metabolic Activation: RAT, LIVER, S-9, AROCLOR 1254, Method: STANDARD PLATE",inactive; negative
same,mutagenic call,"Test System: AMES SALMONELLA TYPHIMURIUM, Strain/Indicator: TA100, Metabolic Activation: NONE, Method: FLUCTUATION TEST",inactive; negative
same,mutagenic call,"Test System: AMES SALMONELLA TYPHIMURIUM, Strain/Indicator: TA100, Metabolic Activation: NONE, Method: STANDARD PLATE",inactive; negative
same,mutagenic call,"Test System: AMES SALMONELLA TYPHIMURIUM, Strain/Indicator: TA100, Metabolic Activation: RAT, LIVER, S-9, AROCLOR 1254, Method: FLUCTUATION TEST",active; positive
same,mutagenic call,"Test System: AMES SALMONELLA TYPHIMURIUM, Strain/Indicator: TA100, Metabolic Activation: RAT, LIVER, S-9, AROCLOR 1254, Method: STANDARD PLATE",inactive; negative
same,mutagenic call,"Test System: AMES SALMONELLA TYPHIMURIUM, Strain/Indicator: TA1535, Metabolic Activation: NONE, Method: STANDARD PLATE",inactive; negative
same,mutagenic call,"Test System: AMES SALMONELLA TYPHIMURIUM, Strain/Indicator: TA1535, Metabolic Activation: RAT, LIVER, S-9, AROCLOR 1254, Method: STANDARD PLATE",inactive; negative
C[C@@H]1Cc2ccc(C(=O)N[C@@H](Cc3ccccc3)C(=O)O)c(O)c2C(=O)O1,mutagenic call,"End Point: IN VIVO CHROMOSOMAL ABERRATIONS, Test System: SPLENOCYTES, Species: RAT, Strain/Sex: FISCHER 344/MALE, Route: ORAL (GAVAGE)",inactive; negative
same,mutagenic call,"Test System: AMES SALMONELLA TYPHIMURIUM, Strain/Indicator: TA102, Metabolic Activation: NONE, Method: STANDARD PLATE",inactive; negative
same,mutagenic call,"Test System: AMES SALMONELLA TYPHIMURIUM, Strain/Indicator: TA102, Metabolic Activation: RAT, LIVER, S-9, AROCLOR 1254, Method: STANDARD PLATE",inactive; negative
